Laboratory results taken from patent publication US20100222410A1, “Nuclease compositions and methods” (Massachusetts Institute of Technology, priority 2008, published 2010).

Columns and labels:
YbeY = molecular target: T1, YbeY (Escherichia coli, UniProt P0A898); assay: Inhibition of YbeY RNase activity in the in vitro cleavage assay (total rRNA substrate); type: biochemical, E. coli
T1 construct: His (N, cleaved yes); MBP (N, cleaved yes); made in house; host or cells: E. coli, pET28A vector, IPTG induction
Method: (§1) In vitro cleavage assays. All YbeY RNase assays were carried out in 50 mM HEPES pH 7.5 in a 20 μl final volume and used 0.2 μg of purified YbeY or 8.0 μg of MBP-YbeY. For assays using total rRNA or folA mRNA as substrate, 800 ng of total E. coli rRNA or synthesized folA mRNA was incubated with YbeY or MBP-YbeY for 30′ at 37° C., separated on an agarose/synergel mix gel and stained with ethidium bromide. Where indicated EDTA was added to 50 mM and MgSO4 was added to 5 mM. For assays using ΔybeY mutant 70S ribosomes as substrate, 800 ng of ΔybeY mutant 70S ribosomes was incubated with YbeY for the indicated time at 37° C., separated on an agarose/synergel mix gel and stained with ethidium bromide. For each reaction, 200 pmol of short RNA substrate was incubated with YbeY or MBP-YbeY for the indicated time at 37° C. Products were separated on denaturing PAGE. The ladder used for each substrate was made by alkaline hydrolysis of the respective substrate. A synthesized short rRNA of defined length was used as a reference for numerating the ladder.

E. coli = assay: 17S rRNA accumulation after treatment of E. coli (total rRNA analysis); type: cell-based
Method: Polysome and rRNA analysis. Polysome profiles were obtained as described previously. rRNA was extracted from logarithmically growing cultures or separated ribosome fractions using Qiagen RNeasy Mini Kit. 16S and 23 rRNA were separated using Synergel/Agarose gel electrophoresis as described previously. […] The site-specific RNase H cleavage assay was performed as described previously followed by Northern hybridization using primers specific for the mature 3′termini of 16S, 23S, and 5S, respectively. 100 ng of total MC4100 or mutant RNA were used for each assay. All reactions were separated on denaturing polyacrylamide gels.

[1] = system: short, sequence-defined, RNA substrates; assay: In vitro cleavage assay, short sequence-defined RNA substrates; type: biochemical; details: for position of major cleavage product from the beginning of the duplex: partially dsRNA substrate with ssRNA 3′ terminus
Method: as §1

[2] = system: 16S rRNA 3′ terminus mimic; assay: YbeY activity on 16S rRNA 3′ terminus mimics; type: biochemical, E. coli
Method: as §1

[3] = system: double stranded or single stranded DNA; assay: YbeY activity on DNA; type: biochemical; details: in vitro
[4] = system: purified 70S ribosomes isolated from the ΔybeY mutant; assay: In vitro cleavage assay, 70S ribosomes as substrate; type: biochemical, E. coli; details: over time, absence of Mg^2+
Method: as §1

total E. coli rRNA = assay: In vitro cleavage assay, total rRNA as substrate; type: biochemical; details: MBP-YbeY at four times the molar concentration of YbeY
Method: as §1

folA mRNA = assay: In vitro cleavage assay, defined mRNA as substrate; type: biochemical
Method: as §1

[5] = partially duplexed RNA substrate with 5′ ssRNA terminus, FIG. 3G

T1 sequence (P0A898 whole entry): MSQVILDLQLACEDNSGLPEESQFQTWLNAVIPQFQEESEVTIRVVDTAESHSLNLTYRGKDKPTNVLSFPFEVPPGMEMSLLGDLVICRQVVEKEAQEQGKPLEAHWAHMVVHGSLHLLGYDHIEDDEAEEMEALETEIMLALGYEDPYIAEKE

Q: With `O=C(O)CN(CCN(CC(=O)O)CC(=O)O)CC(=O)O` [EDTA, ethylenediaminetetraacetic acid] as the molecule, how does the “degradation of total rRNA by YbeY in presence of EDTA” value (YbeY; EDTA added to 50 mM, 30′ at 37° C.) read?
A: The value was “inhibited”.

Q: `[Mg+2]` [Mg^+2, magnesium(II)] was tested. Which “Mg^+2 concentration that inhibits YbeY's RNase activity” value (YbeY; in vitro, MgSO4 added) did it give?
A: Its value is ≥ 5 mM.

Q: How did the “accumulation of 17S rRNA” value (E. coli) turn out when `CC1(C)S[C@@H]2[C@H](NC(=O)[C@H](N)c3ccccc3)C(=O)N2[C@H]1C(=O)O` [ampicillan] was run?
A: The value was “does not cause the accumulation of 17S”.

Q: For `O=C(N[C@H](CO)[C@H](O)c1ccc([N+](=O)[O-])cc1)C(Cl)Cl` [chloramphenicol], which “accumulation of 17S rRNA” value (E. coli) is on record?
A: Its value is “induce the rapid accumulation of 17S rRNA”.

Q: With `OO` [hydrogen peroxide] as the molecule, how does the “accumulation of 17S rRNA” value (E. coli) read?
A: The value was “does not cause the accumulation of 17S”.

Q: `CN[C@@H]1[C@H](O)[C@H](NC)[C@H]2O[C@@]3(O)C(=O)C[C@@H](C)O[C@H]3O[C@@H]2[C@H]1O` [spectinomycin] was tested. Which “accumulation of 17S rRNA” value (E. coli) did it give?
A: Its value is “induce the rapid accumulation of 17S rRNA”.

Q: What does the source list for “YbeY: E. coli UPF0054 family member, purified as MBP fusion, MBP removed by TEV protease cleavage; C-terminal FLAG tag”?
A: cleavage of single-stranded RNA (ssRNA) substrate, short sequence of 16S rRNA ([1]; FIG. 3C): cleaved; cleavage of a perfect RNA duplex ([1]; FIG. 3D): unable to cleave; cleavage of hairpin substrate within the loop ([1]; hairpin with perfectly paired blunt terminus, FIG. 3H): efficiently cleaved; position of major cleavage product from the beginning of the duplex ([1]; FIG. 3E): +1 bases; position of major cleavage product from the beginning of the duplex ([1]; FIG. 3F): +2 bases; cleavage inside the duplex [1, 5]: no cleavage events were observed; position of major cleavage product from the duplexed end [1, 5]: +2 bases; position of the major YbeY cut ([1]; third partially dsRNA substrate with free 3′ ssRNA terminus, different nucleotide sequence): flush with the dsRNA end; cleavage of 50 nucleotide ssRNA 16S rRNA 3′ terminus mimic ([2]; mimic alone, 4 μg of YbeY): cleaved this substrate to generate a mature 3′ terminus; cleavage at the maturation site ([2]; mimic paired with a short mRNA, flap like structure): enhance YbeY cleavage at the maturation site; degradation of double stranded or single stranded DNA [3]: did not degrade; degradation of 70S ribosomes [4]: effectively degraded; RNase activity against total E. coli rRNA (total E. coli rRNA): can degrade total E. coli rRNA; degradation of a defined mRNA (folA mRNA): can also degrade

Q: gentamycin was tested. Which “accumulation of 17S rRNA” value (E. coli) did it give?
A: The value was “induce the rapid accumulation of 17S rRNA”.
